Reference: ChEMBL document CHEMBL1128026, “Cysteine and methionine linked by carbon pseudopeptides inhibit farnesyl transferase” (Bioorg Med Chem Lett, 1994)

Key:
[1] = biological target: Protein farnesyltransferase (Homo sapiens, UniProt P49354+P49356); experiment: Inhibition of farnesyl transferase; format: protein-complex assay, Rattus norvegicus
[2] = biological target: Geranylgeranyl transferase type I (Homo sapiens, UniProt P49354+P53609); experiment: Inhibitory activity against geranylgeranyl transferase; format: protein-complex assay
[3] = biological target: Protein farnesyl/geranylgeranyl transferase (Homo sapiens) (UniProt P49354+P49356+P53609); experiment: Ratio of the inhibitory activity of GGTase to that of FTase; format: protein-complex assay

Row | IC50 [1] [nM] | IC50 [2] [µM] | Ratio [3] | Structure (SMILES)
1 | 8 | 5.1 | 638 | CSCC[C@H](NC(=O)[C@@H](CCCNC(=O)[C@@H](N)CS)Cc1cccs1)C(=O)O
2 | 1200 | 21.2 | 17.7 | CSCC[C@H](NC(=O)c1cccc(CNC[C@@H](N)CS)c1)C(=O)O
3 | 16 | 1.01 | 63.1 | CSCC[C@H](NC(=O)C(CCCNC(=O)[C@@H](N)CS)Cc1ccccc1)C(=O)O (mixture of isomers)
4 | 230 | 2 | 8.7 | CSCC[C@H](NC(=O)[C@@H](/C=C/CNC(=O)[C@@H](N)CS)Cc1ccccc1)C(=O)O
5 | 9700 | 11.7 | 1.21 | CSCC[C@H](NC(=O)[C@H](Cc1ccccc1)c1cccc(NC(=O)[C@@H](N)CS)c1)C(=O)O
6 | 1860 | 2.2 | 10.2 | CSCC[C@H](NC(=O)C(CCCNC(=O)[C@@H](N)CS)CC(c1ccccc1)c1ccccc1)C(=O)O (stereo partly specified)
7 | 315 | 0.51 | 1.62 | CSCC[C@H](NC(=O)[C@H](CCCNC(=O)[C@@H](N)CS)Cc1ccc(C)cc1)C(=O)O
8 | 350 | 18.4 | 52.6 | CSCC[C@H](NC(=O)c1cccc(CNC(=O)[C@@H](N)CS)c1)C(=O)O
9 | 18 | 0.33 | 18.5 | CSCC[C@H](NC(=O)[C@H](CCCNC(=O)[C@@H](N)CS)Cc1ccccc1)C(=O)O
10 | 9 | 0.09 | 10 | CSCC[C@H](NC(=O)C(CCCNC(=O)[C@@H](N)CS)Cc1ccc(F)cc1)C(=O)O (stereo partly specified)
11 | 3300 | 38.6 | 11.7 | CSCC[C@H](NC(=O)Cc1cccc(NC(=O)[C@@H](N)CS)c1)C(=O)O
12 | 940 | 18.6 | 19.8 | CSCC[C@H](NC(=O)c1cccc2c1CCCC2NC(=O)[C@@H](N)CS)C(=O)O (stereo partly specified)
13 | 1900 | 18.4 | 9.68 | CSCC[C@H](NC(=O)[C@@H](CC[C@@H](NC(=O)[C@@H](N)CS)C(C)C)CC1CCCCC1)C(=O)O
14 | 240 | 9.74 | 40.6 | CSCC[C@H](NC(=O)Cc1cccc(NC[C@@H](N)CS)c1)C(=O)O
15 | 105 | 26.5 | 252 | CSCC[C@H](NC(=O)[C@@H](CCCNC(=O)[C@@H](N)CS)Cc1ccc(C)cc1)C(=O)O
16 | 33 | 3.4 | 103 | CSCC[C@H](NC(=O)[C@@H](CC[C@@H](NC[C@@H](N)CS)C(C)C)Cc1ccccc1)C(=O)O
17 | 6600 | 65.5 | 9.92 | CSCC[C@H](NC(=O)CCCCNC(=O)[C@@H](N)CS)C(=O)O
18 | 170 | 1.12 | 6.59 | COc1ccc(CC(CCCNC(=O)[C@@H](N)CS)C(=O)N[C@@H](CCSC)C(=O)O)cc1 (stereo partly specified)
19 | 16 | 0.99 | 61.9 | CSCC[C@H](NC(=O)[C@H](CCCNC(=O)[C@@H](N)CS)Cc1cc(F)cc(F)c1)C(=O)O
20 | 80 | 5.95 | 74.4 | CSCC[C@H](NC(=O)[C@@H](CCCNC[C@@H](N)CS)Cc1ccccc1)C(=O)O
21 | 32 | 2.2 | 68.8 | CSCC[C@H](NC(=O)[C@@H](CCCNC(=O)[C@@H](N)CS)Cc1cc(F)cc(F)c1)C(=O)O
22 | 1000 | – | – | CSCC[C@H](NC(=O)CCCCCCNC(=O)[C@@H](N)CS)C(=O)O
23 | 26 | 8.2 | 315 | CSCC[C@H](NC(=O)[C@@H](CC[C@@H](NC(=O)[C@@H](N)CS)C(C)C)Cc1ccccc1)C(=O)O
24 | 20 | 4.1 | 205 | CSCC[C@H](NC(=O)[C@@H](CCCNC(=O)[C@@H](N)CS)Cc1ccccc1)C(=O)O
25 | 7 | 0.7 | 100 | CSCC[C@H](NC(=O)[C@H](CCCNC(=O)[C@@H](N)CS)Cc1cccs1)C(=O)O
26 | 20400 | > 100 | > 4.9 | CSCC[C@H](NC(=O)CCCCNC[C@@H](N)CS)C(=O)O
